Data taken from PMC5773487, “Harnessing insulin- and leptin-induced oxidation of PTP1B for therapeutic development” (Nature Communications, 2018).
Values joined by “and” are separate entries in the source; they are usually repeats but may differ in a detail not shown here. Identical values can stand only once. “Also recorded” adds a separate entry of the source. Like-named read-outs stand apart in the source and are kept apart here.

T1: PTP1B-CASA-mut2 (Homo sapiens, UniProt P18031, C215A/K39E/K41R/L37F/S216A)
T1 construct: PTP1B (1–321) and TCPTP (1–317) cloned in pET21b vector were used as templates; made in house; host or cells: E. coli BL21 (DE3)-RIL
T1 sequence (P18031 1-321 L37F/K39E/K41R/C215A/S216A limits assumed): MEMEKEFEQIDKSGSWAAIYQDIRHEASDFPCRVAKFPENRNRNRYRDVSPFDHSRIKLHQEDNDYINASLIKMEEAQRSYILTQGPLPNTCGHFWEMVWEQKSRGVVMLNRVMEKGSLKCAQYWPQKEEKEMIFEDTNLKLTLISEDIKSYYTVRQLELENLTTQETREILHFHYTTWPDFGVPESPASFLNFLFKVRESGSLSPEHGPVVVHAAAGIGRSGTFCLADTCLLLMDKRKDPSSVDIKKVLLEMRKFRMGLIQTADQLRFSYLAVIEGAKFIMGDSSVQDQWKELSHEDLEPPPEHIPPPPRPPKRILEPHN

T2: PTP1B-CASA (Homo sapiens, UniProt P18031, C215A/S216A)
T2 construct: PTP1B (1–321) and TCPTP (1–317) cloned in pET21b vector were used as templates; 6xHis (C); made in house; host or cells: E. coli BL21 (DE3)-RIL
T2 sequence (P18031 1-321 C215A/S216A limits assumed): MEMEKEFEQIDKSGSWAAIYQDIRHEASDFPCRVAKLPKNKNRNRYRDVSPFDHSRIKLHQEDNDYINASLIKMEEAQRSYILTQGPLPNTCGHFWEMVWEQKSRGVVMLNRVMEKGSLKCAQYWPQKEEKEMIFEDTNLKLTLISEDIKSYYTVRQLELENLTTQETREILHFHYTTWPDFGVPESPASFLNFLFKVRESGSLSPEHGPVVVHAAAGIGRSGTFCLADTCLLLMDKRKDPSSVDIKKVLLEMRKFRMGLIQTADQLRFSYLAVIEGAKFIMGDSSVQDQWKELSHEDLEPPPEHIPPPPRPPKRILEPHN

T3: reversibly oxidized PTP1B-mut2 (L37F/K39E/K41R) (Homo sapiens, UniProt P18031, K39E/K41R/L37F)
T3 construct: PTP1B (1–321) and TCPTP (1–317) cloned in pET21b vector were used as templates; 6xHis (C); made in house; host or cells: E. coli BL21 (DE3)-RIL
T3 sequence (P18031 1-321 L37F/K39E/K41R): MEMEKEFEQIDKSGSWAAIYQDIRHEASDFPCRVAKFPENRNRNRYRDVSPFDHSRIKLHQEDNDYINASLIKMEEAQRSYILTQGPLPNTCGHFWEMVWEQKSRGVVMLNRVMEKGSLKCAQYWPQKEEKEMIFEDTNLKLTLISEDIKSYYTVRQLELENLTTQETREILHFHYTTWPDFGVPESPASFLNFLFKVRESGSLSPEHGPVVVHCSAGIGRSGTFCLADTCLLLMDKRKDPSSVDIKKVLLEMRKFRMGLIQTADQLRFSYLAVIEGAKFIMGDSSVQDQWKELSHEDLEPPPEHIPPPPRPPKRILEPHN

T4: reversibly oxidized TCPTP-mut2 (F39L/E41K/R43K) (Homo sapiens, UniProt P17706, E41K/F39L/R43K)
T4 construct: PTP1B (1–321) and TCPTP (1–317) cloned in pET21b vector were used as templates; 6xHis (C); made in house; host or cells: E. coli BL21 (DE3)-RIL
T4 sequence (P17706 1-317 F39L/E41K/R43K): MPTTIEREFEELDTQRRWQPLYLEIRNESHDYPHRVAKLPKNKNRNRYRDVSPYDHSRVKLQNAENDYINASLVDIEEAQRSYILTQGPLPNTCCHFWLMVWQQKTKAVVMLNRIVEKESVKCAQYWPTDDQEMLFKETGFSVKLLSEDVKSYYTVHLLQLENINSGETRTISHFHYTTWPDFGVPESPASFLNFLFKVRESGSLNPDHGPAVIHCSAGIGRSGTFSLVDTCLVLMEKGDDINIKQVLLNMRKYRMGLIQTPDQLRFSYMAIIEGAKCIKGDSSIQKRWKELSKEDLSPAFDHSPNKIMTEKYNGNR

B1: scFv45: recombinant conformation-sensor single-chain variable fragment antibody recognizing oxidized PTP1B (antibody, V domains shown)
VH: TVTLDESGGGLQAPGGALSLVCKASGFTFSSYDMGWIRQAPGKGLEYVAGITDNGRYASYGSAVDGRATISRDNGQSSVRLQLNNLRAEDTGTYYCARDDGSGWTGNSIDAWGHGTEVIVSE
VL: ALTQPSSVSANPGGTVKITCSGSSSAYGYGWYQQKSPGSAPVTVIYNNNKRPSNIPSRFSGSKSGSTGTLTITGVQAEDEAVYFCGSEDSSTDAIFGAGTTLTVL

Assays:
PKC = settings: called into question by refs 39, 40; cited from earlier work
PTP1B-CASA-mut2 = target: T1, PTP1B-CASA-mut2; assay: isothermal titration calorimetry; assay type: binding; settings: two independent experiments
Experimental: (§1) The studies were performed using a VP-ITC system from GE Healthcare. All titrations were performed at 25°C in de-gassed buffer (50 mM HEPES pH 7.0, 100 mM NaCl, 2 % DMSO, and 1 mM TCEP). The protein concentrations of PTP1B-CASA and PTP1B-CASA-mut2 were each 50 μM. Protein samples used in ITC were dialyzed completely against the buffer. Inhibitor (10 mM) in DMSO was diluted to make a stock solution of 0.2 mM in de-gassed buffer, which was then used as titrant in the syringe. The instrument was calibrated by using the heat of dilution of NaCl in water. […] The heat of ligand dilution was corrected by subtracting the average heat of injection after saturation. Origin software was used to fit and analyze the data.

PTP1B-CASA = target: T2, PTP1B-CASA; assay: isothermal titration calorimetry; assay type: binding; settings: 25°C
Experimental: as §1

[1] = target: T3, reversibly oxidized PTP1B-mut2 (L37F/K39E/K41R); assay: in vitro binding assay (anti-HA co-immunoprecipitation)
Experimental: (§2) Purified proteins (wt or mutant form of PTP1B or TCPTP (50 nM)) were reversibly oxidized with […] H2O2 followed by a buffer exchange using 0.5 mL Zeba spin desalting columns 7K MWCO (Thermo Fisher Scientific) to remove H2O2. Increasing concentration of purified HA-tagged scFv45 (0–10 µM) was incubated with oxidized proteins in binding buffer (20 mM HEPES, pH 7.4, 300 mM NaCl, 0.05% BSA, 0.05% Tween-20) for 2 h at 4 °C. Anti-HA agarose (Roche, 50% slurry equilibrated in the binding buffer) was added and incubated for 1 h at 4 °C. Protein complexes bound to anti-HA beads were immunoprecipitated and washed three times; first with lysis buffer followed by two more washes with wash buffer (25 mM HEPES, 100 mM NaCl pH 7.4, 0.05% BSA, 0.05% Tween-20, and protease inhibitors). The complexes were separated by SDS-PAGE and analyzed by immunoblotting.

[2] = target: T4, reversibly oxidized TCPTP-mut2 (F39L/E41K/R43K); assay: as above
Experimental: as §2

Molecule	inhibition of PKC (PKC)	binding to PTP1B-CASA-mut2 by ITC (PTP1B-CASA-mut2)	Kd (PTP1B-CASA; read-out: binding constant for PTP1B-CASA by ITC)	Kd (PTP1B-CASA; independent experiments, read-out: affinity for PTP1B-CASA by ITC)	binding to reversibly oxidized PTP1B-mut2 [1]	binding to reversibly oxidized TCPTP-mut2 [2]
COc1ccc2c(c[n+](C)c3c4cc5c(cc4ccc23)OCO5)c1OC [chelerythrine]	inhibitor of PKC	No apparent binding; also recorded: did not detect saturable binding	3 µM	3.25 µM and 2.83 µM and 3.44 µM		
B1					did not bind; also recorded: abrogated	promote binding
